In patent publication US20220281848A1, “PYRAZOLE-SUBSTITUTED PYRROLIDINONES AS HERBICIDES” (FMC Corporation, priority 2019, published 2022):

What was measured:
Format in all cases: in vivo
[1] = tested on: redroot pigweed (Amaranthus retroflexus, AMARE); assay: Test A pre-emergence, redroot pigweed; settings: after 13 d
Method in brief: (§1)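 Each compound is applied pre-emergence at 15.625, 62.5 or 250 g/ha, one day after seeds are sown in standard soil. Plants are then grown in a glasshouse at 24/16° C. with 14 h light and 65% humidity, and injury is scored 0–100 at 13 d.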

[2] = tested on: barnyardgrass (Echinochloa crus-galli, ECHCG); assay: Test A pre-emergence, barnyardgrass; settings: after 13 d
Method in brief: as §1

corn (Zea mays, ZEAMX) = assay: Test A post-emergence, corn; settings: after 13 d
Method in brief: (§2)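 Plants were grown 8 d in a glasshouse (24/16° C day/night, 14 h light, 65% humidity), then sprayed post-emergence at 15.625, 62.5 or 250 g/ha in acetone/water (50:50) with 0.5% Tween 20. Damage was scored visually after 13 d (0 = none, 100 = total).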

maize = assay: Test D pre-emergence, maize seed treated with a herbicide safener; settings: preemergent; for damage to plant (100=total damage to plant; 0=no damage to plant), ZEAMX: 20 DAA; for ZEAMX damage to plant (100=total damage; 0=no damage): safener-treated seed
Method: A formulation containing 50 g/L of the test chemical was prepared by dissolving the active ingredient in a mixture of organic solvents and emulsifier, details of which are provided in the table. This formulation was then mixed with a small, variable amount of acetone to aid dissolution, before addition of a 0.2% v/v aqueous solution of an adjuvant, as the aqueous diluent, to form an aqueous spray solution which contains a predetermined concentration of the active ingredient.
This aqueous spray solution was then sprayed onto plants including maize and wheat that had been seed treated with a herbicide safener, after one day's cultivation (for pre-emergence) or after about 12 days' cultivation (for post-emergence). The plants were grown from seeds sown in standard soil, placed in a glasshouse under controlled conditions (at 24/18° C. or 20/16° C., day/night; 16 h light; 65% humidity). After spray application the plants were then grown in a glasshouse under the same conditions and watered twice daily. After 15 d for post-emergence and 20 DAA for pre-emergence the test was evaluated (100=total damage to plant; 0=no damage to plant).

[3] = tested on: giant foxtail (Setaria faberi, SETFA); assay: Test A post-emergence, giant foxtail; settings: after 13 d
Method in brief: as §2

| SMILES | damage to plant (100=total damage; 0=no damage) AMARE ([1]; Pre-Emergence at 15.625 g/ha) | damage to plant (100=total damage; 0=no damage) AMARE ([1]; Pre-Emergence at 62.5 g/ha) | damage to plant (100=total damage; 0=no damage) AMARE ([1]; Pre-Emergence at 250 g/ha) | damage to plant (100=total damage; 0=no damage) ECHCG ([2]; Pre-Emergence at 15.625 g/ha) | damage to plant (100=total damage; 0=no damage) ECHCG ([2]; Pre-Emergence at 62.5 g/ha) | damage to plant (100=total damage; 0=no damage) ECHCG ([2]; Pre-Emergence at 250 g/ha) | damage to plant (100=total damage; 0=no damage) ZEAMX (corn (Zea mays, ZEAMX); Post-Emergence at 15.625 g/ha) | damage to plant (100=total damage; 0=no damage) ZEAMX (corn (Zea mays, ZEAMX); Post-Emergence at 62.5 g/ha) | damage to plant (100=total damage; 0=no damage) ZEAMX (corn (Zea mays, ZEAMX); Post-Emergence at 250 g/ha) | damage to plant (100=total damage to plant; 0=no damage to plant), ZEAMX (maize; rate 15) | damage to plant (100=total damage to plant; 0=no damage to plant), ZEAMX (maize; rate 30) | damage to plant (100=total damage to plant; 0=no damage to plant), ZEAMX (maize; rate 60) | damage to plant (100=total damage to plant; 0=no damage to plant), ZEAMX (maize; rate 130) | damage to plant (100=total damage to plant; 0=no damage to plant), ZEAMX (maize; rate 250) | damage to plant (100=total damage to plant; 0=no damage to plant), ZEAMX (maize; rate 500) | damage to plant (100=total damage; 0=no damage) SETFA ([3]; Post-Emergence at 15.625 g/ha) | damage to plant (100=total damage; 0=no damage) SETFA ([3]; Post-Emergence at 62.5 g/ha) | damage to plant (100=total damage; 0=no damage) SETFA ([3]; Post-Emergence at 250 g/ha) | other results |
| --- | --- | --- | --- | --- | --- | --- | --- | --- | --- | --- | --- | --- | --- | --- | --- | --- | --- | --- | --- |
| CCn1nc([C@@H]2CN(C)C(=O)[C@H]2C(=O)Nc2cccc(F)c2F)c2cccc(F)c21 [Compound 14] | 0 | 0 | 0 | 60 | 80 | 90 | 70 | 70 | 80 | 0 | 0 | 0 | 10 | 20 | 50 | 80 | 80 | 90 | – |
| CN1CC(c2cc(C(F)(F)F)n(C)n2)C(C(=O)Nc2ccc(F)c(F)c2F)C1=O (racemic) [Compound 17] | 0 | 10 | 20 | 90 | 100 | 100 | 10 | 50 | 80 | 0 | 0 | 0 | 0 | 10 | 30 | 60 | 70 | 80 | – |
| CN1CC(c2cc(Cl)n(C)n2)C(C(=O)Nc2ccc(F)c(F)c2F)C1=O (racemic) [Compound 31] | 0 | 0 | 0 | 60 | 80 | 80 | 0 | 0 | 0 | – | – | – | – | – | – | 40 | 80 | 80 | ZEAMX damage to plant (100=total damage; 0=no damage) (maize; Rates 15, 20 DAA): 0; ZEAMX damage to plant (100=total damage; 0=no damage) (maize; Rates 30, 20 DAA): 0; ZEAMX damage to plant (100=total damage; 0=no damage) (maize; Rates 60, 20 DAA): 0; ZEAMX damage to plant (100=total damage; 0=no damage) (maize; Rates 130, 20 DAA): 0; ZEAMX damage to plant (100=total damage; 0=no damage) (maize; Rates 250, 20 DAA): 0; ZEAMX damage to plant (100=total damage; 0=no damage) (maize; Rates 500, 20 DAA): 0 |
| CN1CC(c2cc(C(F)(F)F)n(C)n2)C(C(=O)Nc2ccc(F)cc2C(C)(F)F)C1=O (racemic) [Compound 26] | – | 0 | 0 | – | 90 | 90 | – | 60 | 80 | 0 | 0 | 0 | 0 | 0 | 0 | – | 80 | 90 | – |
| CN1CC(c2cc(C(F)(F)F)n(C)n2)C(C(=O)Nc2ccc(F)nc2F)C1=O (racemic) [Compound 22] | 0 | 10 | 20 | 70 | 90 | 90 | 20 | 40 | 80 | 0 | 0 | 0 | 0 | 0 | 0 | 50 | 70 | 80 | – |
| CN1CC(c2cc(C(F)(F)F)n(C)n2)C(C(=O)Nc2cccc(F)c2C(F)(F)F)C1=O (racemic) [Compound 19] | 0 | 0 | 0 | 70 | 90 | 90 | 0 | 0 | 10 | 0 | 0 | 0 | 0 | 0 | 0 | 70 | 70 | 80 | – |
| CN1CC(c2cnn(C)c2C(F)(F)F)C(C(=O)Nc2cccc(F)c2F)C1=O (racemic) [Compound 25] | 0 | 0 | 0 | 90 | 100 | 100 | 0 | 20 | 30 | 0 | 0 | 0 | 0 | 0 | 0 | 30 | 70 | 80 | – |
| CN1C[C@H](c2nn(C)c3c(F)cccc23)[C@@H](C(=O)Nc2cccc(F)c2F)C1=O [Compound 2] | 10 | 0 | 0 | 90 | 90 | 90 | 10 | 0 | 40 | 0 | 0 | 0 | 0 | 0 | 10 | 0 | 70 | 80 | – |
